Laboratory results as given in ChEMBL document CHEMBL1201862, “PubChem BioAssay data set” (2004).
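Grown in 96-well plates, cells were treated for 48 hours with each compound at five concentrations. Insufficient inhibition: endpoint recorded as highest concentration tested. GI50 = concentration required for 50% inhibition of growth.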 Activity calls are given as the source filed them. No stated cut-off is given here; in the data, active = GI50 up to about 1.1 µM and inactive = higher.

Tests used:
Experiment in all cases: NCI tumour cell line growth inhibition, 48 h
[1] = system: 786-0
[2] = system: A498
[3] = system: A549
[4] = system: ACHN
[5] = system: CCRF-CEM
[6] = system: COLO 205
[7] = system: DLD-1
[8] = system: DMS-114
[9] = system: DMS-273
[10] = system: EKVX
[11] = system: HCC 2998
[12] = system: HCT-116
[13] = system: HCT-15
[14] = system: HOP-18
[15] = system: HOP-62
[16] = system: HOP-92
[17] = system: HT-29
[18] = system: IGROV-1
[19] = system: K562
[20] = system: KM-20L2
[21] = system: KM12
[22] = system: LOX IMVI
[23] = system: LXFL 529
[24] = system: M14
[25] = system: M19-MEL
[26] = system: MOLT-4
[27] = system: Malme-3M
[28] = system: NCI-H226
[29] = system: NCI-H23
[30] = system: NCI-H460
[31] = system: NCI-H522
[32] = system: OVCAR-3
[33] = system: OVCAR-4
[34] = system: OVCAR-5
[35] = system: OVCAR-8
[36] = system: RXF 393
[37] = system: RXF 631
[38] = system: SF-268
[39] = system: SF-295
[40] = system: SF-539
[41] = system: SK-MEL-28
[42] = system: SK-MEL-2
[43] = system: SK-MEL-5
[44] = system: SK-OV-3
[45] = system: SN12C
[46] = system: SNB-19
[47] = system: SNB-75
[48] = system: SNB-78
[49] = system: SW-620
[50] = system: TK-10
[51] = system: U-251
[52] = system: UACC-257
[53] = system: UACC-62
[54] = system: UO-31
[55] = system: XF498
[56] = system: CAKI-1
[57] = system: HL-60
[58] = system: RPMI-8226

Measured: GI50

N#CC(C(=O)/C(=N/NC(=O)c1ccccc1O)C(C#N)c1ccc(Br)cc1)c1ccc(Br)cc1 (centres undefined)
inactive: [1] 12.7 µM | [2] 13.7 µM | [3] 14.2 µM | [4] 13.7 µM | [5] 2.23 µM | [6] 16.5 µM | [7] 4.79 µM | [8] 15.7 µM | [9] 13.4 µM | [10] 15.6 µM | [11] 12.1 µM | [12] 12.9 µM | [14] 8.41 µM | [15] 14.4 µM | [16] 16.7 µM | [17] 13.3 µM | [18] 15.7 µM | [19] 5.74 µM | [20] 15.4 µM | [21] 12.9 µM | [22] 7.82 µM | [23] 3.32 µM | [24] 14.3 µM | [25] 11.7 µM | [26] 3.93 µM | [27] 11.9 µM | [28] 5.52 µM | [29] 4.74 µM | [30] 14.2 µM | [31] 11.4 µM | [32] 13.5 µM | [33] 15.6 µM | [34] 15.7 µM | [35] 6.43 µM | [36] 4.71 µM | [37] 14.1 µM | [38] > 10 µM | [39] 14.5 µM | [40] 10.6 µM | [41] 13.8 µM | [42] 12.2 µM | [43] 9.55 µM | [44] 36.8 µM | [45] 9.12 µM | [46] 11.6 µM | [47] 2.99 µM | [48] 4.75 µM | [49] 4.02 µM | [50] 24.4 µM | [51] 11.6 µM | [52] 15.1 µM | [53] 6.71 µM | [54] 13.3 µM | [55] 13.7 µM
9.08 µM: [13]

C=C1CCCC2[C@](C)(CC3=C(O)C(=O)C=C(OC)C3=O)[C@@H](C)CC[C@]12C (some centres undefined)
inactive: [1] 2.64 µM | [2] 6.27 µM | [3] 2.86 µM | [4] 4.06 µM | [56] 3.62 µM | [5] 2.36 µM | [6] 7.35 µM | [7] 7.18 µM | [8] 1.99 µM | [10] 6.28 µM | [11] 7.89 µM | [12] 3.71 µM | [57] 2.4 µM | [14] 1.7 µM | [17] 10.9 µM | [18] 3.22 µM | [19] 4.07 µM | [20] 4.24 µM | [21] 2.72 µM | [22] 4.97 µM | [23] 6.04 µM | [24] 1.81 µM | [25] 1.81 µM | [27] 2.9 µM | [29] 3.05 µM | [30] 2.8 µM | [31] 6.82 µM | [32] 3.53 µM | [33] 5.65 µM | [35] 4.41 µM | [58] 2.74 µM | [36] 2.73 µM | [37] 9.62 µM | [38] 4.31 µM | [39] 2.51 µM | [40] 2.79 µM | [41] 3.99 µM | [42] 2.45 µM | [43] 2.42 µM | [44] 12.6 µM | [45] 10.5 µM | [47] 3.94 µM | [49] 3.01 µM | [50] 7.16 µM | [51] 4.06 µM | [52] 3.3 µM | [53] 2.22 µM | [55] 16.7 µM
2.71 µM: [13]
